Test results reported in patent US10583109B2, “Use of silver(I) complexes as anticancer agents” (University of Johannesburg, priority 2012, dated 2020).
Entries after “also recorded” stand apart in the source; their conditions may differ.

Key:
A-549 lung cancer cells = assay: AlamarBlue viability and proliferation assay of A-549 lung cancer cells; format: cell-based; conditions: 2.5 μM, 24 h
Method: A-549 lung cancer cells were maintained in DMEM supplemented with 10% fetal calf serum (FCS), 1 mM pyruvate, 2 mM L-glutamine (Highveld Biological, Kelvin, RSA), 1% antibiotics (penicillin, streptomycin, amphotericin (Highveld Biological, Kelvin, RSA) and gentamycin (Invitrogen Life Technologies, Eugene, Oreg.)).
Cells (1×10^4 cells/well) were plated in 96-well flat-bottomed plates and incubated for 24 h at 37° C. with 5% CO2. All compounds were preheated for 30 min prior treatment. After 24 h compounds (2.5 μM) were mixed with supplemented media and incubated for 24 h. For the untreated control supplemented media was used. Since all compounds were dissolved in DMSO, a 1% DMSO was used as a vehicle control.
The A-549 lung cancer cells were incubated at 37° C. for 3 h in the presence of 10% AlamarBlue® viability and proliferation assay (Invitrogen Life Technologies, Eugene, Oreg.). […] Fluorescence was measured at 530-560 nm (excitation) and 590 nm (emission).
FIG. 27 is a bar chart showing percentage cellular viability of fibroblast cells and A-549 lung cancer cells treated with various molar ratios (complexes (6)-(9)) using the AlamarBlue® cell viability assay whereby the molar ratio of the silver(I) nitrate salt: phosphine ligand of 1:1, 1:2, 1:3 and 1:4 was assessed. Fluorescence was measured with 530 nm excitation wavelength and 590 nm emission wavelength. […]

[1] = system: peripheral blood mononucleocytes (PBMCs); assay: Trypan blue viability assay of PBMCs (non-cancerous cells); format: cell-based; conditions: PBMCs from a healthy donor
Excerpt: To evaluate the relative toxicity on non-tumorigenic tissues, the ideal is to compare the effect of the compounds to a similar cell line that is non-cancerous. The Applicant is currently in the process of purchasing these cell lines and will evaluate the toxicity of the compounds in the near future. However, the Applicant did evaluate the effect of the complexes of the instant invention on peripheral blood mononucleocytes (PBMCs) isolated from fresh whole blood samples from a healthy donor. This already gives a good indication of the potential toxicity of complexes (1)-(5) in an in vivo environment.
The percentage viability of differentially treated PBMCs (peripheral blood mononucleocytes) for complexes (1)-(5) was determined by the Trypan blue viability assay, as shown in FIG. 10. Cells were treated with complexes (1)-(5). Cells treated with 0.1% DMSO and 100 μM Cisplatin were used as a vehicle and apoptotic control respectively. The SEM is indicated as error bars (n=2).

c1ccc([P+](c2ccccc2)(c2ccccc2)[Ag+]([P+](c2ccccc2)(c2ccccc2)c2ccccc2)([P+](c2ccccc2)(c2ccccc2)c2ccccc2)[P+](c2ccccc2)(c2ccccc2)c2ccccc2)cc1 [complex (9), AgNO3(PPh3)4] was tested. Which “toxicity to A-549 lung cancer cells” value (A-549 lung cancer cells) did it give?
The value was “higher toxicity level”.

Which “toxicity on PBMCs (decrease in viability)” value [1] does the source give for [AgSCN{P(4-FC6H4)3}2]2 [complex (3)] here?
Its value is “much lower degree of toxicity; also recorded: significantly lower degree of toxicity”.
